Source: US6534496B1, “Thermogenic composition and benzazepine thermogenics” (Takeda Chemical Industries, Inc., priority 1997, dated 2003)
Where a name gives a salt, the structure may show the parent alone.

melting point	SMILES
228 to 230 °C	O=C(CCC1CCN(Cc2cccnc2)CC1)c1ccc2c(c1)CN(Cc1ccccc1)CCO2 (as salt: hydrochloride)
199 °C (dec.)	CCOC(=O)C1(C(=O)OCC)Oc2ccc(CN3CCC(CCC(=O)c4ccc5c(c4)CN(Cc4ccc(F)cc4)CCO5)CC3)cc2O1 (as salt: hydrochloride)
201 to 204 °C	O=C(O)COc1cccc(CN2CCC(CCC(=O)c3ccc4c(c3)CN(Cc3ccc(F)cc3)CCO4)CC2)c1 (as salt: hydrochloride)
235 to 237 °C	CC(c1ccccc1)N1CCC(CCC(=O)c2ccc3c(c2)CN(Cc2ccc(F)cc2)CCO3)CC1 (stereo not drawn) (as salt: hydrochloride)
243 to 245 °C	O=C(CCC1CCN(Cc2ccncc2)CC1)c1ccc2c(c1)CN(Cc1ccccc1)CCO2 (as salt: hydrochloride)
179 to 182 °C	Cc1cccc(CN2CCC(CCCC(=O)c3ccc4c(c3)CCN(Cc3ccccc3C)CC4)CC2)c1 (as salt: hydrochloride)
235 to 237 °C	O=C(CCC1CCN(Cc2cccc(C(F)(F)F)c2)CC1)c1ccc2c(c1)CN(Cc1ccccc1)CCO2 (as salt: hydrochloride)
239 to 241 °C	O=C(CCC1CCN(Cc2ccc(C(F)(F)F)cc2)CC1)c1ccc2c(c1)CN(Cc1ccccc1)CCO2 (as salt: hydrochloride)
165 to 168 °C	Cc1ccccc1CN1CCc2ccc(C(=O)CCCC3CCN(Cc4ccccc4Cl)CC3)cc2CC1 (as salt: hydrochloride)
233 to 235 °C	O=C(CCC1CCN(Cc2ccc3c(c2)OCO3)CC1)c1ccc2c(c1)CN(Cc1ccccc1)CCO2 (as salt: hydrochloride)
230 to 234 °C (dec.)	O=C(CCCC1CCN(Cc2cccc(Cl)c2)CC1)c1ccc2c(c1)CCN(Cc1ccccc1)CC2 (as salt: hydrochloride)
245 to 248 °C (dec.)	O=C(CCCC1CCN(Cc2cccc(F)c2)CC1)c1ccc2c(c1)CCN(Cc1ccccc1)CC2 (as salt: hydrochloride)
232 °C (dec.)	O=C(CCC1CCN(Cc2cc([N+](=O)[O-])cc([N+](=O)[O-])c2)CC1)c1ccc2c(c1)CN(Cc1ccccc1)CCO2 (as salt: hydrochloride)
241 to 243 °C	O=C(CCC1CCN(Cc2cc(F)cc(F)c2)CC1)c1ccc2c(c1)CN(Cc1ccccc1)CCO2 (as salt: hydrochloride)
234 to 236 °C	O=C(CCC1CCN(Cc2cc(C(F)(F)F)cc(C(F)(F)F)c2)CC1)c1ccc2c(c1)CN(Cc1ccccc1)CCO2 (as salt: hydrochloride)
209 to 212 °C	Cc1cccc(CN2CCc3ccc(C(=O)CCCC4CCN(Cc5ccc(F)cc5)CC4)cc3CC2)c1 (as salt: hydrochloride)
172 to 174 °C	Cc1ccc(CN2CCC(CCCC(=O)c3ccc4c(c3)CCN(Cc3cccc([N+](=O)[O-])c3)CC4)CC2)cc1 (as salt: hydrochloride)
174 to 178 °C	Cc1ccc(CN2CCC(CCCC(=O)c3ccc4c(c3)CCN(Cc3ccccc3Cl)CC4)CC2)cc1 (as salt: hydrochloride)
230 to 234 °C	Cc1ccc(CN2CCC(CCCC(=O)c3ccc4c(c3)CCN(Cc3ccc(Cl)cc3)CC4)CC2)cc1 (as salt: hydrochloride)
245 to 247 °C	O=C(CCC1CCNCC1)c1ccc2c(c1)CN(Cc1ccc(F)cc1)CCC2 (as salt: hydrochloride)
197 to 199 °C	O=C(CCC1CCN(Cc2cccc(C(F)(F)F)c2)CC1)c1ccc2c(c1)CN(Cc1ccc(F)cc1)CCC2 (as salt: hydrochloride)
111 to 113 °C	COC(=O)c1ccccc1CN1CCc2ccc(C(=O)CCCC3CCN(Cc4ccccc4C)CC3)cc2CC1 (as salt: hydrochloride)
193 to 196 °C	O=C(CCCC1CCN(Cc2ccccc2Cl)CC1)c1ccc2c(c1)CCN(Cc1ccc(F)cc1F)CC2 (as salt: hydrochloride)
230 to 235 °C	Cc1ccccc1CN1CCc2ccc(C(=O)CCCC3CCN(Cc4ccccc4N)CC3)cc2CC1 (as salt: hydrochloride)

melting point	SMILES
176 to 189 °C (dec.)	CNC(=O)Nc1ccccc1CN1CCC(CCCC(=O)c2ccc3c(c2)CCN(Cc2ccccc2C)CC3)CC1 (as salt: hydrochloride)
189 to 192 °C	COC(=O)c1ccccc1CN1CCC(CCCC(=O)c2ccc3c(c2)CCN(Cc2ccccc2C)CC3)CC1 (as salt: hydrochloride)
232 to 234 °C	Cc1ccccc1CN1CCC(CCC(=O)c2ccc3c(c2)CN(Cc2ccccc2)CCO3)CC1 (as salt: hydrochloride)
225 to 227 °C (dec.)	O=C(CCC1CCNCC1)c1ccc2c(c1)CCN(Cc1ccc(F)cc1)CC2 (as salt: hydrochloride)
199 to 203 °C	COc1ccc(CN2CCC(CCC(=O)c3ccc4c(c3)CCN(Cc3ccc(F)cc3)CC4)CC2)cc1OC (as salt: hydrochloride)
217 to 220 °C	O=C(CCC1CCN(Cc2ccccc2)CC1)c1ccc2c(c1)CCN(Cc1ccc(F)cc1)CC2 (as salt: hydrochloride)
212 to 218 °C (dec.)	CCOC(=O)c1ccc(CN2CCC(CCC(=O)c3ccc4c(c3)CCN(Cc3ccc(F)cc3)CC4)CC2)cc1 (as salt: hydrochloride)
236 to 238 °C	Cc1ccc(CN2CCC(CCC(=O)c3ccc4c(c3)CN(Cc3ccccc3)CCO4)CC2)cc1 (as salt: hydrochloride)
166 to 169 °C	O=C(CCC1CCN(Cc2ccc(O)cc2)CC1)c1ccc2c(c1)CCN(Cc1ccc(F)cc1)CC2 (as salt: hydrochloride)
242 to 244 °C	O=C(CCC1CCN(Cc2ccccc2F)CC1)c1ccc2c(c1)CN(Cc1ccccc1)CCO2 (as salt: hydrochloride)
241 to 243 °C	O=C(CCC1CCN(Cc2cccc(F)c2)CC1)c1ccc2c(c1)CN(Cc1ccccc1)CCO2 (as salt: hydrochloride)
225 to 227 °C	O=C(CCC1CCN(Cc2cccc(C(F)(F)F)c2)CC1)c1ccc2c(c1)CN(Cc1ccc(F)cc1)CCO2 (as salt: hydrochloride)
227 to 229 °C	O=C(CCC1CCN(Cc2ccccc2Cl)CC1)c1ccc2c(c1)CN(Cc1ccc(F)cc1)CCO2 (as salt: hydrochloride)
203 to 204 °C	O=C(CCC1CCN(Cc2ccccc2C(F)(F)F)CC1)c1ccc2c(c1)CN(Cc1ccc(F)cc1)CCO2 (as salt: hydrochloride)
238 to 240 °C	O=C(CCC1CCN(Cc2ccccn2)CC1)c1ccc2c(c1)CN(Cc1ccccc1)CCO2 (as salt: hydrochloride)
218 to 226 °C (dec.)	COc1ccc(CN2CCc3ccc(C(=O)CCC4CCN(Cc5ccc(F)cc5)CC4)cc3CC2)cc1 (as salt: hydrochloride)
212 to 214 °C	Cc1cccc(CN2CCC(CCC(=O)c3ccc4c(c3)CN(Cc3ccccc3)CCO4)CC2)c1 (as salt: hydrochloride) [Example 4, 3-[1-[(3-Methylphenyl)methyl]-4-piperidinyl]-1-[4-(phenylmethyl)-2,3,4,5-tetrahydro-1,4-benzoxazepin-7-yl]-1-propanone Dihydrochloride]
212 to 214 °C	O=C(CCC1CCN(Cc2ccc(F)cc2)CC1)c1ccc2c(c1)CN(Cc1ccccc1)CCO2 (as salt: hydrochloride) [Example 8, 3-[1-[(4-Fluorophenyl)methyl]-4-piperidinyl]-1-[4-(phenylmethyl)-2,3,4 5-tetrahydro-1,4-benzoxazepin-7-yl]-1-propanone Dihydrochloride]
223 to 225 °C	O=C(CCC1CCN(Cc2ccccc2C(F)(F)F)CC1)c1ccc2c(c1)CN(Cc1ccccc1)CCO2 (as salt: hydrochloride) [Example 12, 1-[4-(Phenylmethyl)-2,3,4,5-tetrahydro-1,4-benzoxazepin-7-yl]-3-[1-[(2-trifluoromethylphenyl)methyl]-4-piperidinyl]-1-propanone Dihydrochloride]
201 to 203 °C	O=C(CCCC1CCNCC1)c1ccc2c(c1)CCN(Cc1ccccc1)CC2 (as salt: hydrochloride) [Example 26, 1-[3-(Phenylmethyl)-2,3,4,5-tetrahydro-1H-3-benzazepin-7-yl]-4-(4-piperidinyl)-1-butanone Dihydrochloride]
219 to 222 °C (dec.)	O=C(CCC1CCN(Cc2ccc(Cl)cc2)CC1)c1ccc2c(c1)CCN(Cc1ccc(F)cc1)CC2 (as salt: hydrochloride) [Example 41, 3-[1-[(4-Chlorophenyl)methyl]-4-piperidinyl]-1-[3-[(4-fluorophenyl)methyl]-2,3,4,5-tetrahydro-1H-3-benzazepin-7-yl]-1-propanone Dihydrochloride]
213 to 216 °C (dec.)	CN1CCC(CCC(=O)c2ccc3c(c2)CCN(Cc2ccc(F)cc2)CC3)CC1 (as salt: hydrochloride) [Example 42, 1-[3-[(4-Fluorophenyl)methyl]-2,3,4,5-tetrahydro-1H-3-benzazepin-7-yl]-3-(1-methyl-4-piperidinyl)-1-propanone Dihydrochloride]
228 to 231 °C (dec.)	CCOC(=O)C(C)(C)c1ccc(CN2CCC(CCC(=O)c3ccc4c(c3)CCN(Cc3ccc(F)cc3)CC4)CC2)cc1 (as salt: hydrochloride) [Example 43, Ethyl 2-methyl-2-[4-[[4-[3-[3-[(4-fluorophenyl)methyl]-2,3,4,5-tetrahydro-1H-3-benzazepin-7-yl]-3-oxopropyl]-1-piperidinyl]methyl]phenyl]propionate Dihydrochloride]
206 to 208 °C	CCOC(=O)COc1ccc(CN2CCC(CCC(=O)c3ccc4c(c3)CCN(Cc3ccc(F)cc3)CC4)CC2)cc1 (as salt: hydrochloride) [Example 45, Ethyl 2-[4-[[4-[3-[3-[(4-fluorophenyl)methyl]-2,3,4,5-tetrahydro-1H-3-benzazepin-7-yl]-3-oxopropyl]-1-piperidinyl]methyl]phenoxy]ethanoate Dihydrochloride]
